Here are results for 3 molecules from patent publication US20200254020A1, “Methods and Compositions for Modulating the WNT-Signaling Pathway as Treatments for Inflammatory Diseases” (UNIVERSITY OF SOUTH CAROLINA, priority 2019, published 2020).

Assay type in all cases: cell-based, human
The test system of one data set is WNT10B. In words: Micro-RNA mimic assay: transfection of THP1 cells, WNT10B mRNA (qRT-PCR) and protein (western blot). Particulars: 5 pmol per well mimic. On the procedure: THP1 cells obtained from ATCC were cultured in complete RPMI medium containing 10% FBS, penicillin, and streptomycin, HEPES buffer and 2-mercaptoethanol. The incubation condition was at 37° C. and 5% CO2.
To investigate whether hsa-miR-7113-5p regulated expression of WNT10B, miRNA mimic transfection studies were performed in THP1 cells. Mimics and inhibitors of the miRNA were obtained from Qiagen Inc. and transfected into the cells by employing Lipofectamine RNAiMAX (Invitrogen, ThermoFisher Scientific, USA). One day prior to transfection, 2×10^5 THP1 cells were plated in a 24-well plate in 5001l complete RPMI medium. Mimic, inhibitor, and scrambled oligos were then added at an amount of 5 pmol per well. Cells were cultured for the indicated time after transfection and harvested for RNA and protein isolation. RNA samples were used for qRT-PCR based quantification of mRNAs and miRNAs. Whole-cell lysates were used for western blot analysis of miRNA target protein.
For the Western blot, anti-human-WNT10B was purchased from SIGMA-ALDRICH (cat # PRS4619). […] The total protein was not pre-quantified for loading onto the SDS-PAGE as the protein amount was to be normalized using an internal control. […] Protein bands were detected in a LI-COR blot detection system (Li-Cor Inc, Nebraska, USA).

A further data set relates to WNT signaling pathway. Nature of the data set: Blocking WNT signaling with IWR-1 in PMA-activated PBMCs, IFNγ expression. Particulars: 10 μM IWR-1, 200 nM PMA. As for the experimental part:
To investigate whether WNT10B was directly responsible for the upregulation of IFNγ expression, the WNT signaling pathway was blocked using an inhibitor of WNT response-1 (IWR-1, Sigma-Aldrich, St. Louis, Mo., cat # I0161). IWR-1 inhibits WNT signaling by stabilizing AXIN1 and prevents its degradation. AXIN1 is an inhibitor of WNT signaling pathway30. PBMCs (2×106) from healthy controls were cultured overnight (˜18 hours) with 10 LM of IWR-1 in separate wells of a 96-well culture plate in 200 μl complete RPMI medium. The following day, PMA and IWR-1 (in a 10 μl volume) were added to the culture to reach a final concentration of 200 nM PMA and 10 μM IWR-1, respectively. After 6 hours, WNT10B was added to the designated wells. Cells were harvested after 24 and 48 hours of adding WNT10B for total RNA extraction. Culture supernatant was collected for ELISA. ELISA for human IFNγ was performed on culture supernatants. The kit for ELISA was purchased from BioLegend Inc. (CA, USA) and assay was performed following the manufacturer's instructions. Reading for OD was performed in a Victor2TM, 1420 Multilabel Counter (Perkin Elmer, USA) plate reader.

Another data set has as its system PBMCs. In words: WNT10B signaling pathway initiation: rh-WNT10B added to PBMC cultures, proinflammatory gene expression and IFNγ ELISA. Particulars: for expression of IFNγ at mRNA level / expression of Tbx-21 at mRNA level: vs un-activated PBMCs or PMA activated PBMCs without rh-WNT10B. As for the experimental part: To analyze whether WNT 10B could influence the expression of proinflammatory genes, WNT signaling was initiated by adding recombinant human (rh)-WNT10B in PBMCs cultures. The PBMCs were isolated from healthy human individuals. Two million cells were cultured in 200 μl medium in a 96-well tissue culture plates as follows: First, the PBMCs were stimulated with Phorbol 12-myristate 13-acetate (PMA) (200 nM) for 6 hours following which, 200 ng/ml rh-WNT10B was added. Then, the PBMCs were harvested after 24 and 48 hours and used for RNA and whole cell lysate (WCL) extraction for further analysis. The culture supernatants were also collected for ELISA to detect IFNγ. The following combinations were used as controls: 1) PBMCs+PMA without WNT10B and 2) PBMCs+WNT10B without PMA.
Before activation of cells and to see whether pre-exposure of cells to WNT10B can influence inflammatory gene expression, WNT10B (200 ng/ml) was first added in all the culture with PBMCs. After 24 hours, PMA (200 nM) was added to activate the cells. The following condition was used for the control: PBMCs+WNT10B without PMA. The cells were then harvested 24 hours after addition of PMA.
To test if chronic presence of WNT 10B alone (without stimulation with PMA) can lead to increased expression of inflammatory genes in the PBMCs, PBMCs (2×10^6 cells/well, in 200 μl, in a 96-well plate) were cultured with rh-WNT10B (200 ng/ml) for 96 hours. Additional rh-WNT10B was added after every 24 hours of culture. Cells were harvested every 24 hours for RNA and whole-cell lysate isolation. Supernatants were also collected for performing ELISA.
ELISA for human IFNγ was performed on culture supernatants. The kit for ELISA was purchased from BioLegend Inc. (CA, USA) and assay was performed following the manufacturer's instructions. Reading for OD was performed in a Victor2TM, 1420 Multilabel Counter (Perkin Elmer, USA) plate reader.

Where [1] appears, read: PMA (200 nM) activated PBMCs, 200 ng/ml rh-WNT10B, 24 hours.
[2] abbreviates: PMA (200 nM) activated PBMCs, 200 ng/ml rh-WNT10B, 48 hours.

Turning to “mimics of hsa-miR-7113-5p: Mimic of miRNA hsa-miR-7113-5p (UCCAGGGAGACAGUGUGUGAG, SEQ ID NO: 2) obtained from Qiagen Inc. (listed as RNA, chemistry not given here; listed as Homo sapiens)”, in the data set with WNT10B (qRT-PCR, compared to scrambled miRNA and miRNA-7113-5p-inhibitor treated groups), the “level of WNT10B mRNA” value is reported as “Significant reduction”. In the data set on WNT10B (western blot of whole-cell lysate after 72 hours, compared to scrambled miRNA and inhibitor groups), the “level of WNT10B protein” value is “Significant reduction”.
For the molecule `O=C(Nc1cccc2cccnc12)c1ccc(N2C(=O)C3C(C2=O)[C@H]2C=C[C@@H]3C2)cc1` (stereo partly shown) [IWR-1, 4-(1,3,3a,4,7,7a-Hexahydro-1,3-dioxo-4,7-methano-2H-isoindol-2-yl)-N-8-quinolinyl-benzamide], in the data set on WNT signaling pathway (WNT10B added after 6 hours), the “expression of IFNγ and other proinflammatory genes upon addition of WNT10B” value is reported as “did not lead to increased expression”. Besides, in the data set on WNT signaling pathway (compared to cells activated with PMA only), the “expression of IFNγ” value was “significantly downregulated”.
On to “rh-WNT10B: recombinant human (rh)-WNT10B added to PBMC cultures to initiate WNT signaling”, for which, in the data set with PBMCs (PMA (200 nM) activated PBMCs, 200 ng/ml rh-WNT10B, 24 hours, ELISA on culture supernatant), the “protein level of IFNγ” value is reported as “significant increase”. In the data set on PBMCs (setting [1]), the “expression of IFNγ at mRNA level” value is recorded as “significant increase” and the “expression of Tbx-21 at mRNA level” value is on record as “significant increase”. Also, in the data set with PBMCs (setting [2]), the “expression of IFNγ at mRNA level” value is listed as “significant increase” and the “expression of Tbx-21 at mRNA level” value was “significant increase”. In the data set on PBMCs (rh-WNT10B (200 and 500 ng/ml) alone added to naïve PBMCs, without PMA), the “induction of inflammatory genes, including STAT3, STAT4, or IFNγ” value is given as “did not induce any inflammatory genes”.
